Molecules are shown by their SMILES.

A short description of this data set: passive permeability, PAMPA, ADME assay (AID 1508612). To be noted: pH 7.4, 30.0 min, 50.0 µM. Background: In PAMPA a lipid-coated filter parts donor from acceptor wells.
As for `COc1ccc(Nc2nc(-c3cccc(OC)c3)no2)cc1`, the Papp was 34.5 ×10⁻⁶ cm/s.

`O=S(=O)(Nc1nccs1)c1ccc(NCc2ccccc2O)cc1` yielded a Papp of 1.15 ×10⁻⁶ cm/s.

The compound `COc1ccc(CN2CCc3nc(N4CCN(c5ccc(F)cc5)CC4)ncc3C2)c(OC)c1OC` showed a Papp of over 1000 ×10⁻⁶ cm/s.

Turning to `COc1ccc(OC)c(Nc2c3c(nc4ccccc24)CCC3)c1`, the Papp was over 1000 ×10⁻⁶ cm/s.

In turn, `CN1C(=O)C(=O)N2C(=C[C@]3(c4c[nH]c5ccccc45)c4ccccc4N[C@H]23)C1=O` registered a Papp of 209 ×10⁻⁶ cm/s.

`Cc1ccccc1C(C(=O)NC1CCCC1)N(C(=O)Cn1cnc2ccccc21)c1cccc(F)c1` (stereo unspecified): the Papp was over 1000 ×10⁻⁶ cm/s.

`Cc1cccc(-c2[nH]c(C(C)(C)C)nc2-c2ccc3nccnc3c2)n1` gave a Papp of 512 ×10⁻⁶ cm/s.

In the case of `Cc1cc(-c2nnc3n2CCCCC3)c(C)n1-c1cccc2ccccc12`, the Papp was over 1000 ×10⁻⁶ cm/s.

Turning to `CNc1nc(C#N)c(-c2cccc3ccccc23)o1`, the Papp was over 1000 ×10⁻⁶ cm/s.

`COC(=O)c1ccc(Oc2nc3c(c(=O)n(C)c(=O)n3C)n2CCC(C)C)cc1` displayed a Papp of over 1000 ×10⁻⁶ cm/s.

In the case of `O=C(NC1CCCc2c1[nH]c1ccc(Cl)cc21)c1ccncc1` (stereo unspecified), the Papp was found to be 7.6 ×10⁻⁶ cm/s.

`CNc1oc(-c2cccc(-c3ccccc3)c2)nc1C#N` showed a Papp of 918 ×10⁻⁶ cm/s.

For `CC(=O)N1CCN(c2ccc(OCc3nn(C)c(C)c3-c3cccc4c(CCCOc5cc(C)c(Cl)c(C)c5)c(C(=O)O)n(Cc5cccnc5)c34)cc2)CC1`, the Papp is 370 ×10⁻⁶ cm/s.

Take `Cc1sc2c(c1C)C(c1ccc(Cl)cc1)=N[C@@H](CC(=O)OC(C)(C)C)c1nnc(C)n1-2`: the Papp was over 1000 ×10⁻⁶ cm/s.

As for `COc1cc(-c2nc(-c3ccccc3)c(-c3cccs3)[nH]2)cc(OC)c1O`, the Papp stood at 530 ×10⁻⁶ cm/s.

`O=C(NC1CCCc2c1cnn2-c1ccc(F)cc1F)c1ccccc1` (stereo unspecified) came in with a Papp of over 1000 ×10⁻⁶ cm/s.

In the case of `CCOC(=O)c1nc(Nc2ccc(N3CCC(C)CC3)cc2)c2ccccc2n1`, the Papp was over 1000 ×10⁻⁶ cm/s.

For the compound `CCN1C(=O)c2ccccc2[S@](=O)c2ccc(C(=O)NCc3ccc(C#N)cc3)cc21`, the Papp turned out to be 872 ×10⁻⁶ cm/s.

Regarding `COc1ccccc1OCCNCC(O)COc1cccc2[nH]c3ccccc3c12` (stereo unspecified), the Papp was over 1000 ×10⁻⁶ cm/s.

`Cc1cc(C)nc(NC(=S)N2CCN(c3cccc([N+](=O)[O-])c3)CC2)c1` yielded a Papp of over 1000 ×10⁻⁶ cm/s.

`O=C(Nc1nc(-c2ccccc2)cs1)c1ccccc1-n1cnnn1` displayed a Papp of under 1 ×10⁻⁶ cm/s.

For `COc1ccccc1C(=O)Nc1nc2nc(C)cc(=O)n2[nH]1`, the Papp came to 7.8 ×10⁻⁶ cm/s.

The compound `COc1ccc(-c2nc3ccc(C4=NNC(=O)CC4C)cc3[nH]2)cc1` (stereo unspecified) came in with a Papp of 228 ×10⁻⁶ cm/s.

In the case of `Cc1ccccc1N(C)C1CN([S+](=O)([O-])c2cccc(C(F)(F)F)c2)C1`, the Papp stood at 991 ×10⁻⁶ cm/s.

`CCn1c(C(=O)N2CCCC(C(=O)NCCc3ccc(C)cc3)C2)cc2sccc21` (stereo unspecified) came in with a Papp of over 1000 ×10⁻⁶ cm/s.

Turning to `COc1ccc(-n2cnc3cc(C(=O)N4CCCCC4)ccc32)cc1`, the Papp was found to be 624 ×10⁻⁶ cm/s.

In the case of `Cc1ccc(S(=O)(=O)Nc2ccccc2C(=O)Nc2ncc(-c3ccccc3)s2)cc1`, the Papp stood at 125 ×10⁻⁶ cm/s.

Regarding `O=c1[nH]c(N2CCOCC2)nc2c1CCN(Cc1ccc(Cl)cc1F)CC2`, the Papp is over 1000 ×10⁻⁶ cm/s.

The compound `COc1ccc2[nH]c(C[C@@H]3C[C@@H](C(C)C)[C@H](CNCc4ccccc4O)C=C3C)nc2n1` registered a Papp of over 1000 ×10⁻⁶ cm/s.

Compound `CS(=O)(=O)c1ccc(-c2cnc(NCc3ccco3)n3cnnc23)cc1` gave a Papp of 16.7 ×10⁻⁶ cm/s.

For `Cc1[nH]c2ccccc2c1CN1CCN(c2ccccn2)CC1`, the Papp is over 1000 ×10⁻⁶ cm/s.

Turning to `CCOc1ccc(CCNC(=O)c2ccnn2Cc2ccccn2)cc1OCC`, the Papp amounted to 177 ×10⁻⁶ cm/s.

In turn, `CNC(=O)C1=C(C)NC(Nc2nc3ccccc3o2)=NC1c1[nH]ncc1Cl` (stereo unspecified) displayed a Papp of 17.6 ×10⁻⁶ cm/s.

Compound `CC1=C(C(=O)Nc2ccccc2)C(c2ccc[nH]2)n2ncnc2N1` (stereo unspecified) had a Papp of 80 ×10⁻⁶ cm/s.

`CCN(CC)CCCC(C)Nc1cc(/C=C/c2ccccc2Cl)nc2cc(Cl)ccc12` (stereo unspecified) returned a Papp of 833 ×10⁻⁶ cm/s.

`CCCSc1nc(N[C@@H]2C[C@H]2c2ccc(F)c(F)c2)c2nnn([C@@H]3C[C@H](OCCO)[C@@H](O)[C@H]3O)c2n1` had a Papp of 776 ×10⁻⁶ cm/s.

On to `Fc1cc(Nc2nc(-c3ccncc3)nc3ccccc23)ccc1-c1cccc(OC(F)(F)F)c1`, for which the Papp was determined as 23.5 ×10⁻⁶ cm/s.

As for `C[C@@]1(C(=O)Nc2ccc(F)nc2)CCCN1c1nc(Nc2cc(C3CC3)[nH]n2)c2cccn2n1`, the Papp is 780 ×10⁻⁶ cm/s.

In turn, `NC(=O)C1CCN(c2nc(-c3ccc(F)cc3)cs2)CC1` registered a Papp of 198 ×10⁻⁶ cm/s. This Papp lies about 3.9-fold lower than the previous one.

The compound `CCc1ccc(NC(=O)c2[nH]c(C)c(C(C)=O)c2C)cc1S(=O)(=O)Nc1cccc(C#N)c1` came in with a Papp of 178 ×10⁻⁶ cm/s. The Papp values of the last two compounds are within 1.5-fold of each other.

Consider `Cc1cc(C)nc(NC(=S)N2CCN(c3cc(C(F)(F)F)nc4ccccc34)CC2)c1`, for which the Papp was over 1000 ×10⁻⁶ cm/s.

`C#CCOc1ccc(-c2nnc(Nc3ccc(NC(C)=O)cc3)c3ccccc23)cc1`: the Papp came out at 502 ×10⁻⁶ cm/s.

For `CC1(C)C(=O)NC2=C1C(=O)C(=O)c1ccccc12`, the Papp stood at 12.5 ×10⁻⁶ cm/s. Against the preceding compound, the Papp is about 40-fold lower.

In turn, `OCc1ccc(-c2ccc(-c3ccc(CO)s3)o2)s1` gave a Papp of 956 ×10⁻⁶ cm/s. Against the preceding compound, the Papp is about 76-fold higher.

`Cn1cnc(S(=O)(=O)Nc2cnccc2C(=O)Nc2nc(-c3ccccc3)cs2)c1` returned a Papp of 1.1 ×10⁻⁶ cm/s.

As to `COc1cccc(C(=O)Nc2nnc(S(=O)(=O)N3CCOCC3)s2)c1`, the Papp came to 19.2 ×10⁻⁶ cm/s.

`COC(=O)c1ccnc(-c2cc(C(=O)Nc3ccc(C4(N)CC4)cc3)ccn2)c1` showed a Papp of over 1000 ×10⁻⁶ cm/s.

`O=C(Nc1nc(-c2ccccc2)cs1)c1ccncc1NS(=O)(=O)c1cccs1` had a Papp of 83.2 ×10⁻⁶ cm/s.

`COCC(C)Nc1ncnc2c1cnn2-c1ccc(C)c(C)c1` (stereo unspecified) displayed a Papp of 690 ×10⁻⁶ cm/s.

On to `CCOC(=O)N1CCc2c(sc(NCc3ccc(N(C)C)cc3)c2C(=O)Nc2ccc(OC)cc2)C1`, for which the Papp amounted to 58.5 ×10⁻⁶ cm/s.

`O=C(O)c1cnc(-c2ccc(F)cc2)nc1-c1ccncc1` came in with a Papp of under 1 ×10⁻⁶ cm/s.

Regarding `CN(C(=O)CNC(=O)c1ccccc1OCC(=O)Nc1ccc(I)cc1)c1ccccc1`, the Papp was over 1000 ×10⁻⁶ cm/s.

The compound `CCS(=O)(=O)c1nc(-c2ccc(Cl)cc2)cc(C(F)(F)F)n1` showed a Papp of 975 ×10⁻⁶ cm/s.

Compound `O=C(Nc1ccc([S+](=O)([O-])Nc2nccs2)cc1)c1ccn[nH]1` gave a Papp of under 1 ×10⁻⁶ cm/s.

`Oc1ccc(CNc2ccc(C(F)(F)F)cc2F)c2cccnc12`: the Papp came to 150 ×10⁻⁶ cm/s.

In the case of `COc1ccc(CCN2C(=O)N(c3ccc(F)cc3)C(=O)C2CC(=O)Nc2ccc(F)c(F)c2)cc1` (stereo unspecified), the Papp was 719 ×10⁻⁶ cm/s.

The compound `Cc1cc(NS(=O)(=O)c2ccc(NC(=O)Cc3ccc(F)c(Cl)c3)cc2)no1` had an apparent permeability coefficient (Papp) of 10.4 ×10⁻⁶ cm/s.

`O=C(c1ccc2c(c1)ncn2-c1ccc(Cl)cc1)N1CCCCC1` returned a Papp of over 1000 ×10⁻⁶ cm/s.

As for `Cc1cc(-c2nnc3n2CCCCC3)c(C)n1-c1ccc(Br)cc1`, the Papp is over 1000 ×10⁻⁶ cm/s.

`CC1Oc2cc3c(-c4c(O)cc(O)c5c(O)c6c(cc45)OC(C)C(C)C6=O)c(O)cc(O)c3c(O)c2C(=O)C1C` (stereo unspecified) displayed a Papp of 8.5 ×10⁻⁶ cm/s.

Regarding `Cc1ccc(S(=O)(=O)Nc2cnccc2C(=O)Nc2nc(-c3cc4ccccc4o3)cs2)cc1`, the apparent permeability coefficient (Papp) came out at 2.48 ×10⁻⁶ cm/s. Compared with the last compound, the Papp is about 3.4-fold lower.

For `CCOc1ccc(CCNC(=O)c2cc3sccc3n2CCN2CCN(C)CC2)cc1OCC`, the Papp was over 1000 ×10⁻⁶ cm/s.

Compound `Cn1cncc1[C@@](N)(c1ccc(Cl)cc1)c1ccc2c(c1)c(-c1cccc(Cl)c1)cc(=O)n2C` showed a Papp of over 1000 ×10⁻⁶ cm/s.

Regarding `CCOc1ccc(CCNC(=O)c2cc3cccnc3n2Cc2cccc(C)n2)cc1OCC`, the Papp was 744 ×10⁻⁶ cm/s.

Consider `CC1(C)CC(=O)C2=C(C1)NC(Nc1nc3ccccc3o1)=NC2c1ccccc1Cl` (stereo unspecified), for which the Papp was over 1000 ×10⁻⁶ cm/s.

`NC(=O)C1CCN(c2nc(-c3ccc(C(F)(F)F)cc3)cs2)CC1` showed a Papp of 292 ×10⁻⁶ cm/s.

Consider `CCc1ccc(-n2nnc(-c3nsc(NC(=O)c4ccccc4Cl)n3)c2C)cc1`, for which the Papp was determined as 615 ×10⁻⁶ cm/s.

The compound `CC(=O)c1c(C)[nH]c(C(=O)Nc2cccc([S+](=O)([O-])Nc3ccccc3C)c2)c1C` yielded a Papp of 628 ×10⁻⁶ cm/s.

Consider `CN1CCN(c2ccc(Nc3nc(-c4ccncc4)nc4ccccc34)cc2F)CC1`, for which the Papp is over 1000 ×10⁻⁶ cm/s.

In the case of `CC(C)c1ccc(OCc2nc3c(n2Cc2ccccc2)C(=O)N(CC2CCOCC2)CCN3)cc1`, the Papp was over 1000 ×10⁻⁶ cm/s.

With `COc1ccnc(NC(=S)N2CCN(c3cccc(C(F)(F)F)c3)CC2)c1`, the Papp was found to be 417 ×10⁻⁶ cm/s.

On to `COc1cc(Cl)cn2c(-c3cccc(NC4CNC4)n3)cnc12`, for which the Papp was determined as 6.1 ×10⁻⁶ cm/s. This Papp is about 68-fold lower than that of the compound before.

`O=C(O)c1cccc(-n2cccc2/C=C2/NC(=O)N(c3cccc(Cl)c3)C2=O)c1` showed a Papp of 3.96 ×10⁻⁶ cm/s.

`CC(C)Oc1cccc(-c2ccnc(N3CCC(C(N)=O)CC3)n2)c1` came in with a Papp of over 1000 ×10⁻⁶ cm/s.

`CC[C@H](NC(=O)[C@H](C)NC)C(=O)N1C[C@@H](O)C[C@H]1Cc1c(-c2[nH]c3cc(F)ccc3c2C[C@H]2C[C@H](O)CN2C(=O)[C@H](CC)NC(=O)[C@H](C)NC)[nH]c2cc(F)ccc12`: the Papp was under 1 ×10⁻⁶ cm/s.

For `COc1cccc(-c2nc(-c3cc4cc(OC)ccc4[nH]c3=O)no2)c1`, the Papp is over 1000 ×10⁻⁶ cm/s.

`COC(=O)c1ccc2c(C(=Nc3ccc(N(C)C(=O)CN4CCN(C)CC4)cc3)c3ccccc3)c(O)[nH]c2c1` yielded a Papp of 12.5 ×10⁻⁶ cm/s.

Take `COc1ccc(/C=C2/C(=O)Nc3ccccc32)cc1O`: the Papp was over 1000 ×10⁻⁶ cm/s.

Compound `C[C@H]1CN(C(=O)c2nn(C)c3ccccc23)C[C@@H]1c1nc(-c2cccnc2)no1` registered a Papp of 982 ×10⁻⁶ cm/s.

The compound `COc1ccc(C2c3c(oc4ccc(C)cc4c3=O)C(=O)N2CCCN2CCOCC2)cc1OC` (stereo unspecified) showed a Papp of 403 ×10⁻⁶ cm/s. Against the preceding compound, the Papp is about 2.4-fold lower.

On to `C=CCc1cccc(CNc2ccc(S(=O)(=O)Nc3nccs3)cc2)c1O`, for which the apparent permeability (Papp) is 134 ×10⁻⁶ cm/s.

For the compound `O=C(Cc1ccc(Cl)c(Cl)c1)Nc1ccc(S(=O)(=O)Nc2cncnc2)cc1`, the Papp was found to be 1.5 ×10⁻⁶ cm/s.

Consider `O=C1c2ccccc2C2=Nc3ccccc3SC(c3ccc(Cl)cc3)C12` (stereo unspecified), for which the apparent permeability (Papp) was under 1 ×10⁻⁶ cm/s.

`Fc1ccc(Nc2nc(-n3ccnc3)nc3ccccc23)cc1F` gave a Papp of 223 ×10⁻⁶ cm/s.

For `O=C(Nc1ccc(Cl)cc1)C(NS(=O)(=O)c1cccs1)c1ccccc1` (stereo unspecified), the Papp was under 1 ×10⁻⁶ cm/s.

`Cc1ccccc1C(=O)N1CCc2cc(-c3nc(NC(=O)Cc4ccc5ccccc5c4)sc3C)ccc21` gave a Papp of under 1 ×10⁻⁶ cm/s.

`Oc1ccc(CNc2cccc(F)c2)c2cccnc12` registered an apparent permeability (Papp) of under 1 ×10⁻⁶ cm/s.

The compound `COc1ccc(Nc2cnc3ccc(-c4ccc(OC)c(OC)c4)nn23)cc1` had a Papp of 396 ×10⁻⁶ cm/s.

`O=C(NCCCNc1nc(Nc2cccc(CN3CCOCC3)c2)ncc1C1CC1)C1CCC1` gave a Papp of 905 ×10⁻⁶ cm/s. This Papp lies about 2.3-fold higher than the previous one.

Regarding `O=C(Nc1ncc(Cc2ccc(C(F)(F)F)cc2)s1)c1ccc(-c2cccnc2)o1`, the Papp was 984 ×10⁻⁶ cm/s.

With `NC(=O)C1CCN(c2nc(-c3ccc(Oc4ccccc4)cc3)cs2)CC1`, the Papp is 953 ×10⁻⁶ cm/s.

What is called Papp is a coefficient for how fast a substance crosses the barrier.

The values above are taken from PubChem BioAssay AID1508612.
